Reference: publication PMC10721329, “Quisinostat is a brain-penetrant radiosensitizer in glioblastoma” (JCI Insight, 2023)
pIC50: −log10 of the molar value. Where “and” joins values, the source holds several entries; their conditions need not be identical. Equal entries are not always repeated.

Key:
[1] = test system: GB187 patient-derived GSC line; experiment: CellTiter-Glo dose-response cell viability assay; assay type: cell-based, human
Procedure: QST (JNJ-26481585) is a second-generation hydroxamic acid harboring remarkable selectivity toward class I HDACs, with a biochemical IC50 of 0.1 nM for HDAC1 ([13]). […] To determine the cytotoxic effects of QST, we performed a dose-titration cell viability assay in 7 patient-derived GSC lines (BT145, GB187, GB239, GB282, GB71, GB82, and GB126) and 1 long-term serum-grown human GBM cell line (U87). Because GBMs display a high degree of intratumoral heterogeneity, we used GSCs derived from both primary and recurrent GBMs that harbored distinct genetic mutations or aberrations, growth rates, MGMT promoter methylation status, and gene expression profiles (Supplemental Figure 1; supplemental material available online with this article; https://doi.org/10.1172/jci.insight.167081DS1). Cell lines were treated with various concentrations of QST (10–1000 nM), and cell viability was measured 3–5 days later (Figure 1, A and B). […] Treatment with QST at the IC50 induced significant inhibition of proliferation (Ki67) and an increase in programmed cell death (cleaved caspase 3) in 2 different GSC lines (Figure 1, C and D). Additional analyses confirmed that QST induces apoptosis after short-term treatment through increased staining of the apoptotic marker annexin V (Figure 2A) and cell cycle arrest (in G2- or S-phase; Figure 2B and Supplemental Figure 1B).
GSCs were seeded in laminin-coated tissue culture–treated 96-well plates (clear bottom, white plate; Corning) at a density of 1000–5000 cells per well (cell line dependent) in GSC media. U87-MG were seeded using their normal growth conditions without laminin (10% bovine calf serum in DMEM). All cells were incubated at 37°C and allowed to adhere overnight. The next day, cells were treated with incremental concentrations of QST (Selleckchem; 0, 10, 25, 50, 100, 250, 500, and 1000 nM) diluted in media. Cells treated without QST were treated with DMSO diluted in media. Following treatment with QST, cells were grown for 3 to 5 days (cell line dependent), and cell viability was measured and quantified. All cell viability measurements were performed using the CellTiter-Glo luminescent cell viability assay (Promega) following the manufacturer’s instructions. For the sulforhodamine B colorimetric assay for cytotoxicity, the protocol was performed as described elsewhere ([33]). All cell viability results represent the mean of at least 3 biological replicates, each containing 3 technical replicates.

U87 flank tumors = experiment: U87 flank tumor growth, QST with or without IR; assay type: in vivo, athymic nude mice; conditions: for flank tumor volume: U87, individual mice
Procedure: We next examined whether QST treatment alone or in combination with IR would be effective in slowing tumor growth in a flank model of GBM (U87). Tumor-bearing mice receiving IR were treated with 2-Gy fractions on Monday, Wednesday, and Friday (MWF) 2 hours after dosing with either vehicle solution or QST (10 mg/kg), for a total dose of 6 Gy. Following completion of IR, mice continued to receive vehicle or QST until the tumors reached the maximum volume threshold (Figure 5C). […] The mean tumor volume in mice with combination treatment was approximately 4.5-fold less than that in vehicle-treated mice at study completion (Figure 5D). […]
Rad225XL irradiator (Precision X -Ray).
For flank implantations, cells were pre pared in a 1:1 ratio with 100 uL Matrigel (Corning […]
syringe fitted with a 26 -gauge needle. Mice were anesthetized with isoflurane in a plastic desiccator placed in an ex ternally vented fume hood. The U87 -Matrigel cell suspension was then subcutaneously injected into the flank of the mouse on the posterior/lateral aspect of the lower rib cage. Mice were monitored daily , and growth of flank tumor area was measured with a di gital caliper (ThermoFisher) twice a week. […]
Preparation of QST for In Vivo Use
For in vivo preparation, QST was dissolved in 50% polyethylene glycol (PEG) 300, 50% sterile water solution for 10 mg/kg dosing. The suspension was then sonicated for 10 minutes to allow the drug to completely dissolve. Finally, the pH of both the drug and the vehicle solutions was adjusted to 7.4 before intraperitoneal dosing. […]
In Vivo Irradiation Studies
Intracranial or flank tumor–bearing nude mice were sedated with gaseous isoflurane before
IR. On the first week of treatment, 2 hours after treatment with QST or vehicle, the mice were […]
treated with 2 Gy of ionizing radiation on MWF for a total 6 Gy (3 doses). Ionizing radiation was administered with the RS2000 series biological research irradiator (Rad Source Technologies).
Treatment of Flank-Implanted Mice with QST and/or Radiation
Implanted flank tumors were allowed to grow until the tumor size reached 100 mm3 volume. Mice were randomized into groups before treatment and underwent treatment on MWF for the entire duration of the experiment until the tumor volumes exceeded 2000 mm3. Treatment groups included vehicle (50% PEG-300), QST alone (10 mg/kg), flank IR treatment with vehicle (2 Gy), and flank IR treatment (2 Gy) with QST (10 mg/kg). For mice receiving IR treatment with or without QST, mice were treated with 2 Gy on MWF for a total 6 Gy during the first week of treatment. QST was administered to mice through intraperitoneal injections 2 hours before flank tumor radiation treatment. Upon completion of the radiation regimen, IR-treated mice subsequently received QST or vehicle alone for the rest of the experiment. Tumor growth and treatment response were monitored by manually measuring the tumor area twice per week starting at 13 days after implantation. Upon reaching the tumor volume threshold (2000 mm3), mice were sacrificed, and plasma and tissue samples were harvested for PD and PK analyses 2 hours after treatment with a final dose of QST (10 mg/kg).
Treatment of Mice with Intracranially Implanted QST and/or Radiation
Mice with implanted tumors were allowed to grow until the tumor bioluminescence score reached […] radiance (p/s/[…]/sr). Mice were randomized into groups before treatment. For survival studies, mice underwent treatment on MWF for the entire duration of the experiment until moribund. For mice receiving IR treatment with or without QST, mice were treated with 2

Which “Cell viability (fraction of DMSO control)” value ([1]; GB187x, QST 10 nM (log[nM] 1)) does the source give for Cn1cc(CNCC2CCN(c3ncc(C(=O)NO)cn3)CC2)c2ccccc21 [QST, quisinostat] here?
The value was 0.9255 and 0.9282.

What about the “Cell viability (fraction of DMSO control)” value ([1]; GB187x, QST 25 nM (log[nM] 1.39794)) of the same molecule?
The value was 0.8647 and 0.8308.

And the “Cell viability (fraction of DMSO control)” value ([1]; GB187x, QST 50 nM (log[nM] 1.69897))?
Its value is 0.7684 and 0.7163.

What about the “Cell viability (fraction of DMSO control)” value ([1]; GB187x, QST 100 nM (log[nM] 2)) of the same molecule?
The value was 0.6258 and 0.5995.

And the “Cell viability (fraction of DMSO control)” value ([1]; GB187x, QST 250 nM (log[nM] 2.39794))?
The value was 0.5316 and 0.4983.

And the “Cell viability (fraction of DMSO control)” value ([1]; GB187x, QST 500 nM (log[nM] 2.69897))?
Its value is 0.4749 and 0.464.

What about the “Cell viability (fraction of DMSO control)” value ([1]; GB187x, QST 1000 nM (log[nM] 3)) of the same molecule?
Its value is 0.4026 and 0.4385.

And the viability at 0.01 µM ([1]; Homo sapiens, GB187x, QST 10 nM (log[nM] 1), read-out: Cell viability (fraction of DMSO control))?
Its viability at 0.01 µM is 88.5%.

What about the viability at 0.025 µM ([1]; Homo sapiens, GB187x, QST 25 nM (log[nM] 1.39794), read-out: Cell viability (fraction of DMSO control)) of the same molecule?
Its viability at 0.025 µM is 79.9%.

What about the viability at 0.05 µM ([1]; Homo sapiens, GB187x, QST 50 nM (log[nM] 1.69897), read-out: Cell viability (fraction of DMSO control)) of the same molecule?
The viability at 0.05 µM was 70.8%.

What about the viability at 0.1 µM ([1]; Homo sapiens, GB187x, QST 100 nM (log[nM] 2), read-out: Cell viability (fraction of DMSO control)) of the same molecule?
Its viability at 0.1 µM is 59%.

What about the viability at 0.25 µM ([1]; Homo sapiens, GB187x, QST 250 nM (log[nM] 2.39794), read-out: Cell viability (fraction of DMSO control)) of the same molecule?
The viability at 0.25 µM was 53.2%.

What about the viability at 0.5 µM ([1]; Homo sapiens, GB187x, QST 500 nM (log[nM] 2.69897), read-out: Cell viability (fraction of DMSO control)) of the same molecule?
Its viability at 0.5 µM is 47.1%.

What about the viability at 1 µM ([1]; Homo sapiens, GB187x, QST 1000 nM (log[nM] 3), read-out: Cell viability (fraction of DMSO control)) of the same molecule?
Its viability at 1 µM is 43.9%.

And the pIC50 ([1]; Homo sapiens, GB187, 3-5 days)?
The pIC50 was 7.00.

And the flank tumor volume (U87 flank tumors; Combo 10 mg/kg Qstat + 6 Gy IR, day 13 post injection)?
Its flank tumor volume is 51.304 mm^3 and 81.733 mm^3 and 83.824 mm^3 and 92.512 mm^3 and 72.03 mm^3 and 53.016 mm^3 and 98.75 mm^3 and 120.094 mm^3.

What about the flank tumor volume (U87 flank tumors; Combo 10 mg/kg Qstat + 6 Gy IR, day 17 post injection) of the same molecule?
The flank tumor volume was 65.596 mm^3 and 96.768 mm^3 and 135.816 mm^3 and 150.381 mm^3 and 167.445 mm^3 and 67.228 mm^3 and 109.551 mm^3 and 200.688 mm^3.

And the flank tumor volume (U87 flank tumors; Combo 10 mg/kg Qstat + 6 Gy IR, day 27 post injection)?
Its flank tumor volume is 91.2925 mm^3 and 64 mm^3 and 59.048 mm^3 and 123.008 mm^3 and 158.112 mm^3 and 72.5 mm^3 and 139.707 mm^3 and 397.373 mm^3.

What about the flank tumor volume (U87 flank tumors; Combo 10 mg/kg Qstat + 6 Gy IR, day 31 post injection) of the same molecule?
The flank tumor volume was 237.141 mm^3 and 56.316 mm^3 and 42.768 mm^3 and 189.216 mm^3 and 218.05 mm^3 and 112.694 mm^3 and 312.188 mm^3 and 612.562 mm^3.

What about the flank tumor volume (U87 flank tumors; Combo 10 mg/kg Qstat + 6 Gy IR, day 34 post injection) of the same molecule?
The flank tumor volume was 414.304 mm^3 and 54.872 mm^3 and 50.274 mm^3 and 397.488 mm^3 and 349.272 mm^3 and 222.95 mm^3 and 441 mm^3 and 1009.49 mm^3.

What about the flank tumor volume (U87 flank tumors; Quisinostat 10 mg/kg IP MWF, day 13 post injection) of the same molecule?
The flank tumor volume was 95.2875 mm^3 and 73.75 mm^3 and 78.4195 mm^3 and 109.8 mm^3 and 67.5 mm^3 and 101.92 mm^3 and 86.756 mm^3 and 57.6 mm^3 and 136.416 mm^3 and 41.8275 mm^3.

And the flank tumor volume (U87 flank tumors; Quisinostat 10 mg/kg IP MWF, day 17 post injection)?
Its flank tumor volume is 210.7 mm^3 and 60.025 mm^3 and 67.76 mm^3 and 121.838 mm^3 and 70 mm^3 and 176.418 mm^3 and 85.054 mm^3 and 154.638 mm^3 and 242.76 mm^3 and 103.823 mm^3.

And the flank tumor volume (U87 flank tumors; Quisinostat 10 mg/kg IP MWF, day 20 post injection)?
The flank tumor volume was 451.315 mm^3 and 83.1875 mm^3 and 86.756 mm^3 and 196.02 mm^3 and 52.9 mm^3 and 139.24 mm^3 and 89.056 mm^3 and 128.797 mm^3 and 283.279 mm^3 and 129.762 mm^3.

And the flank tumor volume (U87 flank tumors; Quisinostat 10 mg/kg IP MWF, day 27 post injection)?
The flank tumor volume was 1576.6 mm^3 and 97.556 mm^3 and 122.247 mm^3 and 660 mm^3 and 99.0945 mm^3 and 314.792 mm^3 and 96.9105 mm^3 and 423.864 mm^3 and 686.07 mm^3 and 596.712 mm^3.

What about the flank tumor volume (U87 flank tumors; Quisinostat 10 mg/kg IP MWF, day 31 post injection) of the same molecule?
Its flank tumor volume is 2338.49 mm^3 and 75 mm^3 and 125.736 mm^3 and 1098.08 mm^3 and 116.614 mm^3 and 483.181 mm^3 and 162.729 mm^3 and 576 mm^3 and 626.336 mm^3 and 1078.78 mm^3.

What about the flank tumor volume (U87 flank tumors; Quisinostat 10 mg/kg IP MWF, day 34 post injection) of the same molecule?
The flank tumor volume was 2338.49 mm^3 and 62.5 mm^3 and 144.652 mm^3 and 1381.2 mm^3 and 108.192 mm^3 and 501 mm^3 and 248.832 mm^3 and 786.52 mm^3 and 822.197 mm^3 and 1622.4 mm^3.

What about the “mean tumor volume, fold less than in vehicle-treated mice” value (U87 flank tumors; U87 flank, QST 10 mg/kg + IR 6 Gy combination, at study completion) of the same molecule?
The value was “approximately 4.5 fold”.
